The subject of the assay is M. tuberculosis H37Rv growth inhibition, 7H9 media. Nature of the assay: M. tuberculosis growth inhibition, HTS (AID 449762).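 As to all read-outs here: bacterial growth assessed after seven days of incubation.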 Particulars: for IC90: measured here: IC90 growth inhibition.

pIC50: −log10 of the molar value. Records with an inconclusive call do not appear. Where only a bound is given, the exact number is not on record here.

Consider `CCOC(=O)c1ccc(NC(=O)CSc2ccc(-c3cccnc3)nn2)cc1`, for which the IC90 is over 100 µM.

As to `CC(C)C(=O)N1CCC2(CC1)Oc1ccc(Cl)cc1C(=O)C21CC(c2ccccc2)=NO1` (centres undefined), the pIC50 is 4.17 and the concentration for an effect of 90% (IC90) is over 100 µM.

In the case of `Cc1c(C(=O)N(C)C)sc2nc(-c3ccccn3)[nH]c(=O)c12`, the pIC50 is 5.23 and the IC90 came to 16.9 µM.

Consider `COc1cc(/C=C2\C(=O)N(c3ccc(S(N)(=O)=O)cc3)N=C2C)ccc1OC(=O)c1ccco1`, for which the pIC50 is 4.79 and the IC90 was determined as 22.6 µM.

With `Cc1ccc(C(=O)CC(SCC(=O)O)c2ccc([N+](=O)[O-])cc2)cc1` (centres undefined), the pIC50 was 5.24 and the IC90 was found to be 6.72 µM.

On to `NNc1nc2ccc(Cl)cc2s1`, for which the pIC50 is 4.37 and the IC90 was 46.6 µM.

`Cc1ccc(Nc2nc(CSc3nnc(-c4cccs4)o3)cs2)cc1`: the pIC50 is 4.39 and the concentration for an effect of 90% (IC90) was over 100 µM.

As to `CCOC(=O)COc1cc([N+](=O)[O-])cc2cccnc12`, the pIC50 was 4.82 and the IC90 was determined as 34.6 µM.

With `CCc1ccc(N=CC23c4ccccc4C(c4ccccc42)C2C(=O)N(c4ccc(OC)cc4)C(=O)C23)cc1` (centres undefined), the pIC50 is 4.27 and the IC90 was over 100 µM.

In the case of `O=c1c2c(-c3ccccc3)csc2ncn1/N=C/c1ccc(O)c([N+](=O)[O-])c1`, the pIC50 was 4.87 and the IC90 was found to be 52.9 µM.

Turning to `CSc1nn(-c2ccc(C(=O)OCC(=O)NC(=O)NC(C)C)cc2)c(=S)s1`, the pIC50 was 4.64 and the IC90 is 25.9 µM.

Consider `NC(=O)CSc1nnc(COc2ccc3ccccc3c2)o1`, for which the pIC50 is 5.76 and the IC90 is over 100 µM.

Turning to `COC(=O)C(C)Oc1ccc2c(c1)O/C(=C\c1ccco1)C2=O` (centres undefined), the pIC50 is 5.25 and the IC90 turned out to be 16 µM.

For the compound `COC(=O)CSc1ncnc2c1sc1nc3c(cc12)COC(C)(C)C3`, the pIC50 was 5.43 and the IC90 is 17.3 µM.

On to `C1=C(c2c[nH]c3ccccc23)CCNC1`, for which the pIC50 was 4.49 and the IC90 was found to be 39.8 µM.

Take `CCN(CC)c1ccc2c(Cl)c(Br)c(=O)oc2c1`: the pIC50 was 4.86 and the IC90 is 43.4 µM.

`COc1ccc(NC(=O)ON=C2c3ccccc3-c3ccccc32)cc1` gave an IC90 of over 100 µM.

As to `O=c1c(C=Nc2ccc(Oc3ccccc3)cc2)c[nH]n1-c1cccc(Cl)n1`, the pIC50 is 4.97 and the IC90 was over 100 µM.

With `CCOC(=O)c1sc(C)c2c(=O)n(CC(=O)c3ccc(Br)cc3)nnc12`, the pIC50 was 4.13 and the IC90 is over 100 µM.

Turning to `O=C(N/N=C/c1cccc2cccnc12)[C@H]1C[C@@H]1c1ccccc1`, the pIC50 was 4.73 and the IC90 was determined as 34.7 µM.

As for `FC(F)(F)c1cc(CO[C@@H]2CCCN[C@@H]2c2ccccc2)cc(C(F)(F)F)c1`, the pIC50 is 4.61 and the concentration for an effect of 90% (IC90) was 28.8 µM.

Take `CC(C)OC(=O)CCCCCN1C(=O)CSC1=S`: the pIC50 is 5.46 and the IC90 is 8.17 µM.

As for `CCOC(=O)N1CCC(n2c(SCC(=O)OCc3ccccc3)nc3ccsc3c2=O)CC1`, the pIC50 was 4.57 and the concentration for an effect of 90% (IC90) is over 100 µM.

Turning to `O=C1C(=O)N(c2ccccc2)c2ccccc21`, the pIC50 is 5.08 and the IC90 stood at 17.7 µM.

For `Oc1cc(NCc2cccnc2)ccc1-c1nc2ccccc2o1`, the negative-log IC50 (pIC50) is 4.90 and the IC90 worked out at 44.4 µM.

Consider `Cc1cc(NC2CCCCC2)nc(-c2ccccc2O)n1`, for which the pIC50 is 4.41 and the IC90 was determined as 51.3 µM.

Consider `CCCCCc1ccc(-c2cn(Cc3cccc(OC)c3)nn2)cc1`, for which the pIC50 was 4.68 and the IC90 came to 50 µM.

As for `COc1ccc(C(=O)/C=C/Sc2nc3ccccc3o2)cc1`, the pIC50 is 4.42 and the IC90 is over 100 µM.

Take `CC(C)c1nc2scc(-c3ccc(Cl)cc3)c2c(=O)n1N`: the pIC50 is 4.09 and the IC90 is over 100 µM.

Take `O=C(Nc1ccc(N2CCN(C(=O)c3ccco3)CC2)cc1)C(c1ccccc1)c1ccccc1`: the pIC50 was 4.92 and the 90% effect concentration (IC90) was 22.6 µM.

On to `Cc1ccc2nc3c(cc(C(=O)NCc4ccco4)c(=N)n3Cc3ccco3)c(=O)n2c1`, for which the pIC50 is 4.50 and the IC90 was over 100 µM.

With `O=C(CSc1nc2ccccc2c(=O)[nH]1)NCc1ccc(Cl)cc1`, the pIC50 was 5.96 and the IC90 was 2.7 µM.

Consider `O=C(NC1CCN(C(=O)N2c3ccccc3Sc3ccccc32)CC1)c1ccccc1F`, for which the pIC50 is 4.06 and the IC90 was over 100 µM.

As for `CCOC(=O)c1cc(-c2ccc(N3CCOCC3)cc2)nn1-c1ccccc1`, the pIC50 is 4.87 and the IC90 was 45.2 µM.

With `C/C(Cl)=C\COc1cc(C)nc2c(Br)cccc12`, the pIC50 is 4.71 and the IC90 was found to be 25.1 µM.

With `O=C(c1ccccc1)c1ccc(OCCOCCN2CCN(Cc3ccccc3)CC2)cc1`, the pIC50 is 4.63 and the IC90 turned out to be 37.5 µM.

As to `Cc1cc(CC(C)C)n(-c2nc3ccccc3c(=O)n2OCC(N)=O)n1`, the pIC50 was 5.41 and the IC90 stood at 12.7 µM.

Regarding `COCCNC(=S)N/N=C(\C)c1ccc(OC)cc1`, the pIC50 is 4.39 and the IC90 is 49.4 µM.

In the case of `Cc1cc(OC(=O)c2cccs2)c2c3c(c(=O)oc2c1)CCCC3`, the pIC50 was 5.52 and the IC90 turned out to be 3.52 µM.

Take `O=C(c1cc2cc(F)ccc2[nH]1)N(Cc1cccnc1)CC1CCCN(C2CCCCC2)C1` (centres undefined): the pIC50 is 4.60 and the IC90 amounted to 33.6 µM.

In the case of `c1ccc(-c2nnc(-c3ccccn3)nn2)nc1`, the pIC50 was 5.44 and the IC90 is 6.27 µM.

With `CCOc1ccc(NC(=O)CSc2nc(O)c(C)c(=O)n2-c2ccc(F)cc2)cc1`, the pIC50 is 5.07 and the IC90 is 20.3 µM.

`COc1ccc(C2=NC(=O)/C(=C\c3cc(OC)c(OC)c(OC)c3)O2)cc1`: the pIC50 was 5.24 and the IC90 turned out to be 49.3 µM.

On to `C=CCOc1ccc(C2C(C#N)=C(N)N(Nc3ccccc3)C3=C2C(=O)CC(C)(C)C3)cc1OC` (centres undefined), for which the pIC50 was 4.52 and the IC90 is 68.2 µM.

Turning to `Cc1cc(/C=C2\SC(=Nc3ccc(F)cc3)NC2=O)c(C)n1-c1ccc(S(N)(=O)=O)cc1`, the pIC50 is 4.65 and the IC90 was determined as 25.5 µM.

On to `Cc1ccc(N2CCN(C(=O)c3cn(CC4CCCCC4)nn3)C(C)C2)cc1` (centres undefined), for which the pIC50 was 5.39 and the IC90 stood at 12.4 µM.

Consider `O=C(/C=C/c1ccc(OCCCF)cc1)Nc1ccnc(-c2ccncc2)n1`, for which the pIC50 was 4.43 and the IC90 turned out to be 68.8 µM.

As to `Cc1ccc(N/N=C/C=C/c2ccco2)cc1`, the pIC50 was 4.21 and the IC90 was 98.2 µM.

For `CC(C)(C)c1cc(-c2nc(N)nc(N)n2)c(O)c(C(C)(C)C)c1`, the pIC50 was 4.12 and the IC90 came out at 88.9 µM.

With `CCOC(=O)c1sc2nc3n(c(=O)c2c1C)CCC(C)CC3` (centres undefined), the pIC50 was 4.77 and the IC90 was determined as 39 µM.

In the case of `O=C(CCl)Nc1cccn2ncnc12`, the pIC50 was 5.86 and the IC90 amounted to 2.89 µM.

`CC(C)(C)c1csc(NC(=O)c2c(F)c(F)c(F)c(F)c2F)n1`: the pIC50 is 4.75 and the IC90 worked out at 25.2 µM.

Regarding `COc1cc(C(=O)N/N=C/c2cc([N+](=O)[O-])cs2)cc(OC)c1OC`, the pIC50 is over 6.70 and the IC90 turned out to be 25.9 µM.

In the case of `COCCn1nnnc1C(c1cc2cc(OC)ccc2[nH]c1=O)N1CCC(Cc2ccccc2)CC1` (centres undefined), the pIC50 was 4.05 and the IC90 was 99.8 µM.

As to `O=C(COc1ccccc1)NNc1nc2ccccc2s1`, the pIC50 is 4.32 and the IC90 is over 100 µM.

With `c1ccc(CN2CCC(Nc3nc(-c4ccccc4)nc4ccccc34)CC2)cc1`, the pIC50 is 4.99 and the IC90 was 16.3 µM.

On to `O=C(O)c1[nH]c(=O)[nH]c(=O)c1F`, for which the pIC50 was 5.34 and the IC90 turned out to be 14.2 µM.

`COc1ccc2c(c1)CCc1c(C(=O)Nc3c(C)n(C)n(-c4ccccc4)c3=O)noc1-2`: the pIC50 was 4.85 and the IC90 is over 100 µM.

With `Cc1ccc(C(=O)N/N=C(/CC(=O)c2cccs2)C(F)(F)F)cc1`, the pIC50 was 5.53 and the IC90 came out at 3.28 µM.

With `CN(CCCC1CCCC1)C(=O)CCc1nnc(-c2ccccc2)o1`, the pIC50 was 5.14 and the IC90 was determined as 20.1 µM.

As for `Cc1ccc(NCc2ccc(O)c3ncccc23)cc1C`, the pIC50 is 4.25 and the IC90 was over 100 µM.

Regarding `CCOC(=O)c1ccccc1NC(=O)COc1coc(CN2CCc3ccccc32)cc1=O`, the pIC50 was 4.75 and the IC90 was determined as 38.2 µM.

On to `CCn1c(C)nc2cc(C(=O)OC(C(F)(F)C(F)F)C(F)(F)C(F)F)ccc21`, for which the pIC50 is 4.75 and the IC90 amounted to 26.1 µM.

Consider `COc1ccc(C(C[N+](=O)[O-])c2c(-c3ccccc3)cc3ccccn23)c(OC)c1` (centres undefined), for which the pIC50 was 4.83 and the IC90 was 38.6 µM.

Turning to `CSc1ncc(C(=O)Nc2ccc(Br)cn2)c(C)n1`, the pIC50 was 6.03 and the IC90 turned out to be 3.9 µM.

Regarding `Cc1nc(S/C(=C/c2ccc(-c3ccc(Cl)cc3)o2)C(=O)O)n[nH]1`, the pIC50 is 4.74 and the IC90 was over 100 µM.

For `COCc1cc(=O)[nH]c(Nc2nc3ccccc3o2)n1`, the pIC50 was 5.80 and the IC90 was found to be 7.06 µM.

For `O=c1cc(/C=C/c2ccccc2)oc2ccccc12`, the pIC50 is 4.44 and the IC90 is over 100 µM.

Take `COc1ccc(C(CCN2CCCCC2)c2c(OC)cc(OC)c3c(-c4ccccc4)cc(=O)oc23)cc1` (centres undefined): the pIC50 is 4.82 and the IC90 is 22.4 µM.

Consider `Cc1c(Cl)cccc1-c1ccc(CNCc2ccccn2)o1`, for which the pIC50 was 6.15 and the IC90 worked out at 4.03 µM.

Regarding `CC(C)(C)C(=O)N1CCN(c2ccc(NC(=O)c3ccc([N+](=O)[O-])o3)cc2)CC1`, the pIC50 was over 6.70 and the IC90 was under 0.2 µM.

On to `CCOC(=O)c1ccc(NC2=CC(=O)C(=O)c3ccccc32)cc1`, for which the pIC50 was 4.50 and the IC90 worked out at 39.7 µM.

`CCOCCN1CCN(c2c(CC)c(C)nc3cc(-c4cc(OC)cc(OC)c4)nn23)CC1`: the pIC50 was 4.59 and the IC90 was 38.9 µM.

For orientation: IC90 means the concentration at which the effect reaches the 90% level. What is called pIC50 is the negative decadic logarithm of the IC50, by convention in mol/L.

Values taken from PubChem BioAssay AID449762 (Southern Research Specialized Biocontainment Screening …, 2010).
